Data reported in ChEMBL document CHEMBL1201862, “PubChem BioAssay data set” (2004).
Calls of active or inactive are those of the source.

How the values were obtained:
Cytochrome P450 2C9 = Cytochrome P450 2C9 (Homo sapiens, UniProt P11712); details: Potency
[1] = Counterscreen for IDE inhibitors: Luminescence-based cell-based high throughput dose response assay to identify compounds that are cytotoxic to HEK cells. [Related pubchem assays: 434962 (Primary screen (IDE inhibitors in singlicate)), 449730 (Counterscreen (Cytotoxicity in triplicate)), 435028 (Confirmation (IDE inhibitors in triplicate)) …; type: functional; details: HEK293
Insulin-degrading enzyme = biological target: T1, Insulin-degrading enzyme (Homo sapiens, UniProt P14735); assay: Dose Response: Fluorescence polarization-based cell-based high throughput dose response assay for inhibitors of insulin-degrading enzyme (IDE). [Related pubchem assays: 434962 (Primary screen (IDE inhibitors in singlicate)), 449730 (Counterscreen (Cytotoxicity in triplicate)), 435028 (Confirmation (IDE inhibitors in triplicate)), 434984 (Summary …; type: functional
T1 sequence (P14735 whole entry): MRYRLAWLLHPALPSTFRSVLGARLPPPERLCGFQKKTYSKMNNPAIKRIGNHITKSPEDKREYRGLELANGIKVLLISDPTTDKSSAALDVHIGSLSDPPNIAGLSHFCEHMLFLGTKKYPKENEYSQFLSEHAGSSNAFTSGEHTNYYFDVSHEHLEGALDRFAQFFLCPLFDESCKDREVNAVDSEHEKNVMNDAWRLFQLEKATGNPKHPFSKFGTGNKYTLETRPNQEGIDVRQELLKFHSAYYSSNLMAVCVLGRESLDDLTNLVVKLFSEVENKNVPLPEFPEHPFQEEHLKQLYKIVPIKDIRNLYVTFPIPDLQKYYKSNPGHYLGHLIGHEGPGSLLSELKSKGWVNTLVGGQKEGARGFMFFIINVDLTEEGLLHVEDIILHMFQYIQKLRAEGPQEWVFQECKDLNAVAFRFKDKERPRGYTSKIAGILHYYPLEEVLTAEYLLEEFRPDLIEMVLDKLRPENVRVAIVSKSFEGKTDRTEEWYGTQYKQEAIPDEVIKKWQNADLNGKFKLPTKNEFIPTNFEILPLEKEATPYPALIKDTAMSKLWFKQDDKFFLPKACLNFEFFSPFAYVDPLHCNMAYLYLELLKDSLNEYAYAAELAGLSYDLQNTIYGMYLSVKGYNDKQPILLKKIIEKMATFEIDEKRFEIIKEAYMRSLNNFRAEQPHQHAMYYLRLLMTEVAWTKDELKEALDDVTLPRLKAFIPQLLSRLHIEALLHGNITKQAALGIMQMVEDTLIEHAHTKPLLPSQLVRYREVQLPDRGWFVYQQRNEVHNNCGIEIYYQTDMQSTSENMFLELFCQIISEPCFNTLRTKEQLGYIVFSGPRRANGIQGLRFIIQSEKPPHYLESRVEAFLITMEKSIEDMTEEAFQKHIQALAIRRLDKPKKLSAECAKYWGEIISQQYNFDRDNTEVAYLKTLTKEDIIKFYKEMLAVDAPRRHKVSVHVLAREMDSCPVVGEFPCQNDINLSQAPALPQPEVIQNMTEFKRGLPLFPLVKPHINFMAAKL

[2] = HEK-293T cell viability reduction – luminescence, B-cell screen hits, cytotoxicity control for BCR NF-kB inhibitor project, dose response (AID 489021); type: functional, cell-based;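 note: HEK-293T cells carrying an NF-kB luciferase reporter; cells exposed to compound for about 14 hours before viability readout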
Protein Wnt-3a = Protein Wnt-3a (Mus musculus, UniProt P27467); assay: antagonism of Wnt3a pathway luciferase reporter – Wnt-LIGHT cells, luminescence, selectivity assay for Gli-SUFU antagonist project, dose response (AID 651570); type: functional; details: read-out: IC50_Mean;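 note: Wnt-LIGHT reporter cells stimulated with conditioned medium from Wnt3a-producing cells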
[3] = biological target: G2/mitotic-specific cyclin-B1 (Homo sapiens, UniProt P14635); assay: Counterscreen assay for inhibitors of Wee1 degradation: dose response cell-based assay to identify inhibitors of cyclin B degradation. [Related pubchem assays: 1410, 1321 ]; type: functional
Wee1-like protein kinase = Wee1-like protein kinase (Homo sapiens, UniProt P30291); assay: Dose Response Cell-based Assay for Inhibitors of Wee1 Degradation. [Related pubchem assays: 1410, 1321 ]; type: functional
[4] = biological target: Photoreceptor-specific nuclear receptor (Homo sapiens, UniProt Q9Y5X4); type: functional;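 note: potency for compounds that break the NR2E3 corepressor complex and count as activators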
[5] = biological target: Peroxisome proliferator-activated receptor gamma/Nuclear receptor corepressor 2 (Homo sapiens, UniProt P37231+Q9Y618); type: functional
Peroxisome proliferator-activated receptor gamma/Nuclear receptor corepressor 2, sequence (P37231 whole entry): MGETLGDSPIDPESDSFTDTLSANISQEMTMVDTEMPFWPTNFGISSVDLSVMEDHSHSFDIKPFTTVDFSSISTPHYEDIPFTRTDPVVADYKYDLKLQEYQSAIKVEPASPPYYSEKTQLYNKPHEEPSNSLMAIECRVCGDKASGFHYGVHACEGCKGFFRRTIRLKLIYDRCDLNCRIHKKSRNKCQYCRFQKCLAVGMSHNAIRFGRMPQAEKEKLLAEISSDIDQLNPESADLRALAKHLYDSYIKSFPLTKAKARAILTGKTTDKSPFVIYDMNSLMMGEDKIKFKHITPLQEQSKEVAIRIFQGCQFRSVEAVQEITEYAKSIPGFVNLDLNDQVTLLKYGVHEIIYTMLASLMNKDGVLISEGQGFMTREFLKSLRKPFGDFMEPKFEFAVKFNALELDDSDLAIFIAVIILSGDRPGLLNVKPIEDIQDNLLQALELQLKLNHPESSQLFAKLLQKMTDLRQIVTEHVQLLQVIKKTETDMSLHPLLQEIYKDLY
Peroxisome proliferator-activated receptor gamma/Nuclear receptor corepressor 2, sequence (Q9Y618 whole entry): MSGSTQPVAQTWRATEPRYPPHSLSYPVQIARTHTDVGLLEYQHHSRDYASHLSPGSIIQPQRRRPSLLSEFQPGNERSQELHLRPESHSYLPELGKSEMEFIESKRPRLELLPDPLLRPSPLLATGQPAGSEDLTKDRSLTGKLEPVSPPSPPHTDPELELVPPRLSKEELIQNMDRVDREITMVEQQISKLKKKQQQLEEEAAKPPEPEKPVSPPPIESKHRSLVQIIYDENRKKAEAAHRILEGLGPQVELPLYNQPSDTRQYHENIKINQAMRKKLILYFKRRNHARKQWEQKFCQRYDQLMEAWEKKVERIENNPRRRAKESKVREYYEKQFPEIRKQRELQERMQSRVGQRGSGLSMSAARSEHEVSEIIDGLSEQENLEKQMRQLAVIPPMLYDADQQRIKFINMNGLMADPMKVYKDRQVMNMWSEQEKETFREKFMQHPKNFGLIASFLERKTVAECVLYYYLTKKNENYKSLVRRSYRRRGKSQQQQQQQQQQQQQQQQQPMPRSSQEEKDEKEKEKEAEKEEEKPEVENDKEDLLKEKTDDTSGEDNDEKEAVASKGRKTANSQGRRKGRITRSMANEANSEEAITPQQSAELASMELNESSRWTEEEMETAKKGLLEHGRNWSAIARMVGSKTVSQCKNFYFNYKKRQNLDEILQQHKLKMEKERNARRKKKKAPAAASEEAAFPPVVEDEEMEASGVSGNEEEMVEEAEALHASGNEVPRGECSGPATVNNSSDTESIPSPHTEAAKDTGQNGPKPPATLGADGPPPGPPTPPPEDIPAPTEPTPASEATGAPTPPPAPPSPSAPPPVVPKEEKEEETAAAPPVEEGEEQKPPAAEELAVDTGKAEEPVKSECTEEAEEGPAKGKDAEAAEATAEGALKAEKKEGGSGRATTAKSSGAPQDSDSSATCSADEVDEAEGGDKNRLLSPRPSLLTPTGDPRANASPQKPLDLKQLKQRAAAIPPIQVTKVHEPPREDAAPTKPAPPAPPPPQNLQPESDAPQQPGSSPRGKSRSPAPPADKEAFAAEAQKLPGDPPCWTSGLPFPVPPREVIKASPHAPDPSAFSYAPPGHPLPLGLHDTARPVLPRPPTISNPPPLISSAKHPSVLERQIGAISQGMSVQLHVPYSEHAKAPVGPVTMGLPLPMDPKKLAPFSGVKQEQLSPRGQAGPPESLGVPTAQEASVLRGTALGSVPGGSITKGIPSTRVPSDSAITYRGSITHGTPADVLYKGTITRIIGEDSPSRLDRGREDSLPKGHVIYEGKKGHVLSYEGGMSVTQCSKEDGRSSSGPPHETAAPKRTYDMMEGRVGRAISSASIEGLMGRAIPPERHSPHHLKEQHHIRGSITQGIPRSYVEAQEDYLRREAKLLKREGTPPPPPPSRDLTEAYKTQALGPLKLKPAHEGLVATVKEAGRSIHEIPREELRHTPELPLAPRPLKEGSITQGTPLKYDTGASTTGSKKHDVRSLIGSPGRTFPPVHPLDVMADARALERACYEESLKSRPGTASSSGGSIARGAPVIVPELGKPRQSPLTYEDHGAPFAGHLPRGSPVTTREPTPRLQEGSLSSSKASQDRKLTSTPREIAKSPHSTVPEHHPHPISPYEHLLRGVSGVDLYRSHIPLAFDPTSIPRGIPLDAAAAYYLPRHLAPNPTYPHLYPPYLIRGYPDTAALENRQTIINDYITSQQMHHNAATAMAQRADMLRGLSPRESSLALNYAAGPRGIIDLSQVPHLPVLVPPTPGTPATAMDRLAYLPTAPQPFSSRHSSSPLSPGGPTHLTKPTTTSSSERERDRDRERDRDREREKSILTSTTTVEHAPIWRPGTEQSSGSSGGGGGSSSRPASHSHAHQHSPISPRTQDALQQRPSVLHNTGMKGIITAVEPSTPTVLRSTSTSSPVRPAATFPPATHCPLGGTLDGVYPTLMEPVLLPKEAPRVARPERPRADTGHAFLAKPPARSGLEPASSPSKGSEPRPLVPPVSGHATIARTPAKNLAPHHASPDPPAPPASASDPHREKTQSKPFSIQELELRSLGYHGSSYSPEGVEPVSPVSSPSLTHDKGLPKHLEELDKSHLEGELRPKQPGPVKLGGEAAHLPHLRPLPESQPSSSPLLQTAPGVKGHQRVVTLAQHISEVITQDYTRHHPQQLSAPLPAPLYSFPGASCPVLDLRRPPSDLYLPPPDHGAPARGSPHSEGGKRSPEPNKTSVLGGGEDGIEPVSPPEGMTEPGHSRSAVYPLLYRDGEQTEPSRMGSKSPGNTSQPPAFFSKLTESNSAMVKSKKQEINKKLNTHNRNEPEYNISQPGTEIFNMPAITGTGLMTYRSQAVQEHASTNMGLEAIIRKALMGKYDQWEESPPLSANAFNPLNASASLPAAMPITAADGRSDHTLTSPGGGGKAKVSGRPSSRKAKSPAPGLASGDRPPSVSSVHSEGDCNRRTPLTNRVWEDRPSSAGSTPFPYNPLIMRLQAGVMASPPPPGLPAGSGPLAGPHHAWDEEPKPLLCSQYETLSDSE

Photoreceptor-specific nuclear receptor, sequence (Q9Y5X4 whole entry): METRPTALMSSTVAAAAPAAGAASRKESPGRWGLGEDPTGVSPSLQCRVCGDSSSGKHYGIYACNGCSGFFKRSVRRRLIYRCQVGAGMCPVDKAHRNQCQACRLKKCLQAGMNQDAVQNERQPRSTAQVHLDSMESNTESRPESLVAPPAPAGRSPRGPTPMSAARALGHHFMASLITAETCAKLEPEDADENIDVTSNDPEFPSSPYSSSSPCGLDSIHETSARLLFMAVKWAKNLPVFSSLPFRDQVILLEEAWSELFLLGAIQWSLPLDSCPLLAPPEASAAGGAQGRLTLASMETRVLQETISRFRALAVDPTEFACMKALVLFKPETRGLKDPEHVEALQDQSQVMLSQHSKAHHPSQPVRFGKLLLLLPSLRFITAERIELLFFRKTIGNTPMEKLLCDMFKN
Protein Wnt-3a, sequence (P27467 whole entry): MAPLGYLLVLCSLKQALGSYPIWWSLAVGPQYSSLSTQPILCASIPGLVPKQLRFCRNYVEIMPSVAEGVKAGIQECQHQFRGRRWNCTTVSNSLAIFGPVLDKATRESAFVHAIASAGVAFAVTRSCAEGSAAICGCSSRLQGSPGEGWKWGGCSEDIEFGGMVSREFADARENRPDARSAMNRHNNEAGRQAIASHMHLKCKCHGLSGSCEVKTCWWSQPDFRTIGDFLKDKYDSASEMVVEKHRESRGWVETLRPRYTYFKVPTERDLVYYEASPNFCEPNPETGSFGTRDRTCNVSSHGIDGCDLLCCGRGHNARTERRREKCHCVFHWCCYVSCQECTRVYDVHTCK
G2/mitotic-specific cyclin-B1, sequence (P14635 whole entry): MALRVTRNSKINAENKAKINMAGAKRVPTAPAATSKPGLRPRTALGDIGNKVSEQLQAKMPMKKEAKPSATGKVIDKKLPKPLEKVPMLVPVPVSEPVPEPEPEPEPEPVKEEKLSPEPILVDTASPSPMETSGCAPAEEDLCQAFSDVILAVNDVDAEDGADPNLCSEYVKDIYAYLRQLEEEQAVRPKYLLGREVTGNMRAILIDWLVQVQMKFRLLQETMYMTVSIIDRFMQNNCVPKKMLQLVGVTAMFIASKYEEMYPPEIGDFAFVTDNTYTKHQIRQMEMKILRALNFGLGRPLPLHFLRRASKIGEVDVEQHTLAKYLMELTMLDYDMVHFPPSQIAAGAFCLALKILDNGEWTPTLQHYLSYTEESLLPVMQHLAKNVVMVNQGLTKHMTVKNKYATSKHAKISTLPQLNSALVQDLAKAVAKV
Cytochrome P450 2C9, sequence (P11712 whole entry): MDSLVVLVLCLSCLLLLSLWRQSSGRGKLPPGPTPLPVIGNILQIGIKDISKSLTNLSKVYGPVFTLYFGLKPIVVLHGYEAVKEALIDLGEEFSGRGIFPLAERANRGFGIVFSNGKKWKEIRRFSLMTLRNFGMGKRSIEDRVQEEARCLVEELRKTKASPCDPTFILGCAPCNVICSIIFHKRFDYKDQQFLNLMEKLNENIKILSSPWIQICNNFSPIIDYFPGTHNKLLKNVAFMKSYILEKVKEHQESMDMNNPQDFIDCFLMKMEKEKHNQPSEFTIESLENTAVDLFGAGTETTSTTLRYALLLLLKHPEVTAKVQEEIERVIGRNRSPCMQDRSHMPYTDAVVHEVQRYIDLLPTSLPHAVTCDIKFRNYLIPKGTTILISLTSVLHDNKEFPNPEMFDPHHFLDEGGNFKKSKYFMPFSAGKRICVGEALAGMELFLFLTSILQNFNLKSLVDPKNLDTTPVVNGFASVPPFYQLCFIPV

Which AC50 (Cytochrome P450 2C9) does the source give for `CC(C)(C)c1ccc(OC2C(O)COC2/C=C/C#Cc2ccccc2)cc1` (centres undefined) here?
The AC50 was 5.01 µM (inconclusive).

For `CC1CCN(c2c(NCc3ccc(C(=O)N4c5ccccc5CC4C)cc3)c(=O)c2=O)CC1` (centres undefined), which IC50 [1] is on record?
The IC50 was 17.6 µM (not active).

And the IC50 (Insulin-degrading enzyme)?
Its IC50 is 2.98 µM (active).

What about the IC50 [2] of the same compound?
The IC50 was > 80 µM (inactive).

And the IC50 (Protein Wnt-3a)?
The IC50 was 16.4 µM (active).

Which EC50 [3] does the source give for `Cc1cc(Cl)ccc1N=C(S)Nc1ccccn1` here?
The EC50 was > 49.7 µM (not active).

And the EC50 (Wee1-like protein kinase)?
The EC50 was > 49.7 µM (not active).

Which IC50 [4] does the source give for `CSc1nc(O)c(C#N)c(-c2ccccc2)n1` here?
The IC50 was > 39.8 µM (not active).

What about the IC50 [5] of the same compound?
Its IC50 is 5.34 µM (active).
